Experimental findings from PMC10154775, “Specificity of Penicillin Acylases in Deprotection of N-Benzyloxycarbonyl Derivatives of Amino Acids” (Acta Naturae, 2023) are described below.

Molecules are shown by their SMILES.

The target of this assay is T1, Penicillin acylase from Escherichia coli (Escherichia coli, UniProt P06875).
T1 construct: gene pac; prepared by a procedure described earlier
T1 sequence (P06875 27-235, looked up): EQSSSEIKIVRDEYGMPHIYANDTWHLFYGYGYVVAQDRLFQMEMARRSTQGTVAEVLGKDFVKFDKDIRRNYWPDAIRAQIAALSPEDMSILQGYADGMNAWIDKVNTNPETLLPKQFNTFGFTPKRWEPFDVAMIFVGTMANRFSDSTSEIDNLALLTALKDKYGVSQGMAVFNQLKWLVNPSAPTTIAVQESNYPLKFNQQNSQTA
T1 sequence (P06875 290-846, looked up): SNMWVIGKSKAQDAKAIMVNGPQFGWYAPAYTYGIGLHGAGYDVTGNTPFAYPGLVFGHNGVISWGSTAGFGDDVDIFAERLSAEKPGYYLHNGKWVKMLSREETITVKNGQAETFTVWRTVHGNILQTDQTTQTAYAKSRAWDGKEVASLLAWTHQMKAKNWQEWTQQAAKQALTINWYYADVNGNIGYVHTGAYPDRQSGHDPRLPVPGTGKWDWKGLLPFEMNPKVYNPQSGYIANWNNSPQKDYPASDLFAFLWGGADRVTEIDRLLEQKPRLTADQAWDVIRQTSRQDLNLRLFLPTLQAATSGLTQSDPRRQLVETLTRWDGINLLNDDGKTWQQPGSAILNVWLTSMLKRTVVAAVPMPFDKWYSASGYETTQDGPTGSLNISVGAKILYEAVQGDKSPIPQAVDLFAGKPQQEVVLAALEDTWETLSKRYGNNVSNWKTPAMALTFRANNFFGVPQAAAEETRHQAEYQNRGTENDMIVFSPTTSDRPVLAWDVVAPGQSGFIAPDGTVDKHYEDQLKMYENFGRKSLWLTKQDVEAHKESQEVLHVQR
The experiment in a line: KM as competitive inhibition constant of NIPAB hydrolysis, […] nm. Type of assay: biochemical. The conditions noted are these: pH 7.5, 0.01 M phosphate, 0.1 M KCl, 25 C; competitive with NIPAB.
As for `O=C(O)C[C@H](NC(=O)OCc1ccccc1)C(=O)O` [N-benzyloxycarbonyl derivative of aspartic acid], the KM entry was “the least effective binding substrates for penicillin acylase from Escherichia coli are derivatives of aspartic acid”. Consider `C[C@H](NC(=O)OCc1ccccc1)C(=O)O` [N-benzyloxycarbonyl-L-Ala], for which the KM result is given as “expressed as the catalytic constant value (%) with respect to the corresponding alanine derivatives”. `O=C(O)C[C@H](NC(=O)Cc1ccccc1)C(=O)O` [N-phenylacetyl derivative of aspartic acid]: the KM entry is given as “the least effective binding substrates for penicillin acylase from Escherichia coli are derivatives of aspartic acid”.
